Assay results taken from patent US20220008391A1, “NOVEL COMPOUNDS FOR CONTROLLING ARTHROPODS” (Bayer Animal Health GmbH, priority 2018, published 2022).
Converted amounts (≈) assume the structure as drawn.

Experiment: Measurement of solubility in buffer at pH 6.5
Assay type: physicochemical
Conditions: aqueous buffer, kinetic from dmso stock; PBS buffer pH 6.5, shaken 24h at rt, LC-MSMS; read-out: Solubility of example compounds at pH 6.5
Experimental: Measurement of Solubility in Buffer at pH 6.5 2-4 mg of the test compound are dissolved in DMSO to reach a concentration of 50 g/L (solution A). To 10 μl of this solution 960 μl PBS buffer pH 6.5 are added (final concentration: 515 μg/1); the mixture is shaken for 24h at rt in a 96 well plate. An aliquot is centrifuged at 42000 rpm für 30 min. The supernatant is diluted with acetonitrile/water (8:2) 1:10 and 1:1000 resp. This diluted samples are analyzed by LC-MSMS. Calibration: 10 μl of solution A are diluted with 823 μl DMSO (final concentration: 600 μg/ml), which is further diluted with acetonitrile/water 8:2 by a factor of 100 (provides solution B). The calibration curve is obtained from solution B by further diluting with acetonitrile/water 8:2 with target concentrations of 1.2-12-60-600 ng/ml and injecting these four solutions for MS measurement. PBS-Puffer: 6.18 g sodium chloride and 3.96 g sodium dihydrogen phosphate are dissolved in 1 L aqua dist., the pH is adjusted to 6.5 with 1N sodium hydroxide. The following conditions were used for quantification: Autosampler without auto inject ahead setting, column: Waters OASIS HLB, 2,1×20 mm, 25μ, column temperature: 30° C., flow rate: 2.5 mL/min, injected volume: 2 μl, Splitter (before MS) 1:20.

Row | Structure (SMILES) | solubility at 24 h
1 | Cn1nc(C(F)(F)C(F)(F)F)c(C(F)(F)F)c1-n1cc(-c2ccc(Cl)c(C(=O)N(COC(=O)O[C@H]3CC[C@@H](OC(=O)/C=C/C(=O)O)CC3)C3(C#N)CC3)c2)cn1 [Example 32, Cis-(2E)-4-({-4-[({[{2-Chloro-5-[2′-methyl-5′-(pentafluoroethyl)-4′-(trifluoromethyl)-2′H-[1,3′-bipyrazol]-4-yl]benzoyl}(1-cyanocyclopropyl)amino]methoxy}carbonyl)oxy]cyclohexyl}oxy)-4-oxobut-2-enoic Acid] | 41 µg/mL (≈ 49.8 µM)
2 | CC(C)(COC(=O)CCC(=O)O)COC(=O)OCN(C(=O)c1cc(-c2cnn(-c3c(Cl)cc(C(F)(C(F)(F)F)C(F)(F)F)cc3OC(F)(F)F)c2)ccc1Cl)C1(C#N)CC1 [Example 5, 1-(2-Chloro-5-{1-[2-chloro-4-(1,1,1,2,3,3,3-heptafluoropropan-2-yl)-6-(trifluoromethoxy)phenyl]-1H-pyrazol-4-yl}phenyl)-2-(1-cyanocyclopropyl)-8,8-dimethyl-1,5,11-trioxo-4,6,10-trioxa-2-azatetradecan-14-oic Acid] | 2 µg/mL (≈ 2.2 µM)
3 | N#CC1(N(COC(=O)O[C@H]2CC[C@H](C(=O)O)CC2)C(=O)c2cc(-c3cnn(-c4c(Cl)cc(C(F)(C(F)(F)F)C(F)(F)F)cc4OC(F)(F)F)c3)ccc2Cl)CC1 [Example 18, Trans-4-[({[(2-chloro-5-{1-[2-chloro-4-(1,1,1,2,3,3,3-heptafluoropropan-2-yl)-6-(trifluoromethoxy)phenyl]-1H-pyrazol-4-yl}benzoyl)(1-cyanocyclopropyl)amino]methoxy}carbonyl)oxy]cyclohexane-1-carboxylic Acid] | 3 µg/mL (≈ 3.53 µM)
4 | Cn1nc(C(F)(F)C(F)(F)F)c(C(F)(F)F)c1-n1cc(-c2ccc(Cl)c(C(=O)N(COC(=O)O[C@H]3CC[C@@H](C(=O)O)CC3)C3(C#N)CC3)c2)cn1 [Example 23, Cis-4-[({[{2-Chloro-5-[2′-methyl-5′-(pentafluoroethyl)-4′-(trifluoromethyl)-2′H-[1,3′-bipyrazol]-4-yl]benzoyl}(1-cyanocyclopropyl)amino]methoxy}carbonyl)oxy]cyclohexane-1-carboxylic Acid] | 50 µg/mL (≈ 66.4 µM)
5 | N#CC1(N(COC(=O)OCCC(=O)O)C(=O)c2cc(-c3cnn(-c4c(Cl)cc(C(F)(C(F)(F)F)C(F)(F)F)cc4OC(F)(F)F)c3)ccc2Cl)CC1 [Example 36, 3-[({[(2-Chloro-5-{1-[2-chloro-4-(1,1,1,2,3,3,3-heptafluoropropan-2-yl)-6-(trifluoromethoxy)phenyl]-1H-pyrazol-4-yl}benzoyl)(1-cyanocyclopropyl)amino]methoxy}carbonyl)oxy]propanoic Acid] | 16 µg/mL (≈ 20.1 µM)
6 | Cn1nc(C(F)(F)C(F)(F)F)c(C(F)(F)F)c1-n1cc(-c2ccc(Cl)c(C(=O)N(COC(=O)OCC3(C(=O)O)CC3)C3(C#N)CC3)c2)cn1 [Example 31, 1-{[({[{2-Chloro-5-[2′-methyl-5′-(pentafluoroethyl)-4′-(trifluoromethyl)-2′H-[1,3′-bipyrazol]-4-yl]benzoyl}(1-cyanocyclopropyl)amino]methoxy}carbonyl)oxy]methyl}cyclopropane-1-carboxylic Acid] | 168 µg/mL (≈ 232 µM)
7 | Cn1nc(C(F)(F)C(F)(F)F)c(C(F)(F)F)c1-n1cc(-c2ccc(Cl)c(C(=O)N(COC(=O)OCCOC(=O)CCCC(=O)O)C3(C#N)CC3)c2)cn1 [Example 28, 1-{2-Chloro-5-[2′-methyl-5′-(pentafluoroethyl)-4′-(trifluoromethyl)-2′H-[1,3′-bipyrazol]-4-yl]phenyl}-2-(1-cyanocyclopropyl)-1,5,10-trioxo-4,6,9-trioxa-2-azatetradecan-14-oic Acid] | 76 µg/mL (≈ 96.8 µM)
8 | Cn1nc(C(F)(F)C(F)(F)F)c(C(F)(F)F)c1-n1cc(-c2ccc(Cl)c(C(=O)N(COC(=O)OCCCC(=O)O)C3(C#N)CC3)c2)cn1 [Example 20, 4-[({[{2-Chloro-5-[2′-methyl-5′-(pentafluoroethyl)-4′-(trifluoromethyl)-2′H-[1,3′-bipyrazol]-4-yl]benzoyl}(1-cyanocyclopropyl)amino]methoxy}carbonyl)oxy]butanoic Acid] | 212 µg/mL (≈ 297 µM)
9 | N#CC1(N(COC(=O)OCCOC(=O)CCCC(=O)O)C(=O)c2cc(-c3cnn(-c4c(Cl)cc(C(F)(C(F)(F)F)C(F)(F)F)cc4OC(F)(F)F)c3)ccc2Cl)CC1 [Example 12, 1-(2-Chloro-5-{1-[2-chloro-4-(1,1,1,2,3,3,3-heptafluoropropan-2-yl)-6-(trifluoromethoxy)phenyl]-1H-pyrazol-4-yl}phenyl)-2-(1-cyanocyclopropyl)-1,5,10-trioxo-4,6,9-trioxa-2-azatetradecan-14-oic Acid] | 3 µg/mL (≈ 3.4 µM)
10 | N#CC1(N(COC(=O)OCC(=O)O)C(=O)c2cc(-c3cnn(-c4c(Cl)cc(C(F)(C(F)(F)F)C(F)(F)F)cc4OC(F)(F)F)c3)ccc2Cl)CC1 [Example 19, [({[(2-chloro-5-{1-[2-chloro-4-(1,1,1,2,3,3,3-heptafluoropropan-2-yl)-6-(trifluoromethoxy)phenyl]-1H-pyrazol-4-yl}benzoyl)(1-cyanocyclopropyl)amino]methoxy}carbonyl)oxy]acetic Acid] | 42 µg/mL (≈ 53.8 µM)
11 | Cn1nc(C(F)(F)C(F)(F)F)c(C(F)(F)F)c1-n1cc(-c2ccc(Cl)c(C(=O)N(COC(=O)O[C@H]3CC[C@H](OC(=O)/C=C/C(=O)O)CC3)C3(C#N)CC3)c2)cn1 [Example 22, Trans (2E)-4-({-4-[({[{2-chloro-5-[2′-methyl-5′-(pentafluoroethyl)-4′-(trifluoromethyl)-2′H-[1,3′-bipyrazol]-4-yl]benzoyl}(1-cyanocyclopropyl)amino]methoxy}carbonyl)oxy]cyclohexyl}oxy)-4-oxobut-2-enoic Acid] | 17 µg/mL (≈ 20.7 µM)
12 | N#CC1(N(COC(=O)O[C@H]2CCC[C@H]2OC(=O)CCC(=O)O)C(=O)c2cc(-c3cnn(-c4c(Cl)cc(C(F)(C(F)(F)F)C(F)(F)F)cc4OC(F)(F)F)c3)ccc2Cl)CC1 (relative stereo) [Example 7, 4-({(rel 1R,2S)-2-[({[(2-chloro-5-{1-[2-chloro-4-(1,1,1,2,3,3,3-heptafluoropropan-2-yl)-6-(trifluoromethoxy)phenyl]-1H-pyrazol-4-yl}benzoyl)(1-cyanocyclopropyl)amino]methoxy}carbonyl)oxy]cyclopentyl}oxy)-4-oxobutanoic Acid] | 3 µg/mL (≈ 3.31 µM)

Other lines, results leading:

Row | solubility at 24 h | Structure (SMILES)
13 | 38 µg/mL (≈ 47 µM) | Cn1nc(C(F)(F)C(F)(F)F)c(C(F)(F)F)c1-n1cc(-c2ccc(Cl)c(C(=O)N(COC(=O)O[C@H]3CCC[C@@H]3OC(=O)/C=C/C(=O)O)C3(C#N)CC3)c2)cn1 [Example 42, (2E)-4-({(1S,2S)-2-[({[{2-Chloro-5-[2′-methyl-5′-(pentafluoroethyl)-4′-(trifluoromethyl)-2′H-[1,3′-bipyrazol]-4-yl]benzoyl}(1-cyanocyclopropyl)amino]methoxy}carbonyl)oxy]cyclopentyl}oxy)-4-oxobut-2-enoic Acid]
14 | 43 µg/mL (≈ 53 µM) | Cn1nc(C(F)(F)C(F)(F)F)c(C(F)(F)F)c1-n1cc(-c2ccc(Cl)c(C(=O)N(COC(=O)OCC(C)(C)COC(=O)/C=C/C(=O)O)C3(C#N)CC3)c2)cn1 [Example 39, (12E)-1-{2-chloro-5-[2′-methyl-5′-(pentafluoroethyl)-4′-(trifluoromethyl)-2′H-[1,3′-bipyrazol]-4-yl]phenyl}-2-(1-cyanocyclopropyl)-8,8-dimethyl-1,5,11-trioxo-4,6,10-trioxa-2-azatetradec-12-en-14-oic Acid]
15 | 37 µg/mL (≈ 45.6 µM) | Cn1nc(C(F)(F)C(F)(F)F)c(C(F)(F)F)c1-n1cc(-c2ccc(Cl)c(C(=O)N(COC(=O)O[C@@H]3CCC[C@H]3OC(=O)CCC(=O)O)C3(C#N)CC3)c2)cn1 [Example 38, 4-({(1R,2R)-2-[({[{2-Chloro-5-[2′-methyl-5′-(pentafluoroethyl)-4′-(trifluoromethyl)-2′H-[1,3′-bipyrazol]-4-yl]benzoyl}(1-cyanocyclopropyl)amino]methoxy}carbonyl)oxy]cyclopentyl}oxy)-4-oxobutanoic Acid]
16 | 7 µg/mL (≈ 8.65 µM) | N#CC1(N(COC(=O)OCCCC(=O)O)C(=O)c2cc(-c3cnn(-c4c(Cl)cc(C(F)(C(F)(F)F)C(F)(F)F)cc4OC(F)(F)F)c3)ccc2Cl)CC1 [Example 37, 4-[({[(2-Chloro-5-{1-[2-chloro-4-(1,1,1,2,3,3,3-heptafluoropropan-2-yl)-6-(trifluoromethoxy)phenyl]-1H-pyrazol-4-yl}benzoyl)(1-cyanocyclopropyl)amino]methoxy}carbonyl)oxy]butanoic Acid]
17 | 43 µg/mL (≈ 53.8 µM) | Cn1nc(C(F)(F)C(F)(F)F)c(C(F)(F)F)c1-n1cc(-c2ccc(Cl)c(C(=O)N(COC(=O)OCCOC(=O)CC(C)(C)C(=O)O)C3(C#N)CC3)c2)cn1 [Example 40, 1-{2-Chloro-5-[2′-methyl-5′-(pentafluoroethyl)-4′-(trifluoromethyl)-2′H-[1,3′-bipyrazol]-4-yl]phenyl}-2-(1-cyanocyclopropyl)-12,12-dimethyl-1,5,10-trioxo-4,6,9-trioxa-2-azatridecan-13-oic Acid]
18 | 4 µg/mL (≈ 4.86 µM) | CC(C)(COC(=O)OCN(C(=O)c1cc(-c2cnn(-c3c(Cl)cc(C(F)(C(F)(F)F)C(F)(F)F)cc3OC(F)(F)F)c2)ccc1Cl)C1(C#N)CC1)C(=O)O [Example 41, 3-[({[(2-Chloro-5-{1-[2-chloro-4-(1,1,1,2,3,3,3-heptafluoropropan-2-yl)-6-(trifluoromethoxy)phenyl]-1H-pyrazol-4-yl}benzoyl)(1-cyanocyclopropyl)amino]methoxy}carbonyl)oxy]-2,2-dimethylpropanoic Acid]
